According to paper PMC6279743, “A small molecule ApoE4-targeted therapeutic candidate that normalizes sirtuin 1 levels and improves cognition in an Alzheimer’s disease mouse model” (Scientific Reports, 2018):
Read-outs that look alike come from different tables or passages of the source.

Columns and labels:
[1] = tested on: SirT1 levels in N2a-E4 cells; assay: SirT1 AlphaLISA in N2a-E4 cells (HTS, secondary and dose-response testing); format: cell-based, murine; details: for EC50: Mus musculus
Experimental: For HTS we tested a portion of the UCLA compound library (10 plates) including the NIH Clinical Collection library (3 plates). Complete medium (25 µL) was added to each well of 384-well plates, then library compounds were added (250 nL) followed by a suspension of 4 × 10^5 cells/mL murine neuroblastoma N2a cells (25 μL) stably transfected with ApoE4 (N2a-E4). After incubation of the N2a-E4 cells with compounds for 24 hrs at 37 °C and 5% CO2, all but ~6 μL of medium were removed and AlphaLISA Lysis Buffer complemented with HALT protease/phosphatase inhibitor (20 μL, 1X final) was added to each well. To maximize lysis, the plates were frozen at −80 °C. For the AlphaLISA, lysates were thawed and vortexed for 1 min at 3000 rpm.
The AlphaLISA comprises streptavidin donor beads, biotinylated anti-SirT1 N-terminal antibody (19A7AB4), and acceptor beads conjugated to the anti-SirT1 C-terminal antibody (1F3); when the target protein is bound by both antibodies, the beads are in close enough proximity for a transfer of ^1O2 and emission of a detectable signal (Supplementary Fig. S3). For the AlphaLISA, a 384-proxy plate was preloaded with AlphaLISA buffer (2 µL, 1X) with HALT (1X), then cell lysate (2 μL) was transferred to the proxy plate followed by the antibody-mix (2 μL). After incubation at room temperature for 1 hr, the donor bead mixture was added (2 µL) and incubated for an additional 30 min. The plates were then read in an Envision plate reader. All points are one replicate. The standard curve is generated by serial dilution of recombinant SirT1 to assess the linear range of the assay; study samples undergo serial dilution as well. We use A03 as a positive control in the HTS assay. The Z-value, while not ideal, was <1 for the assay (Supplementary Fig. S3).
Compound in medium (50 µL, 2X) was loaded into a 96-well plate, then 4 × 10^4 cells were added to each well; 24 hrs later the medium was removed and cells lysed. Lysate protein concentration was determined using the Bradford assay according to the manufacturer’s instructions. SirT1 was determined in lysates using the SirT1 AlphaLISA as described above.

[2] = Parallel Artificial Membrane Permeability Assay (PAMPA; IAM column); format: in vitro ADME
Experimental: We used L(+)tartaric acid to isolate the L-enantiomer salt and D(-) tartaric acid to isolate the D-enantiomer salt, followed by neutralization of the salt with NaOH and re-crystallization to obtain the enantiomers. Enantiomer abundance (Supplementary Fig. S4) was determined by HPLC using a Chiralpak IB column. Isopropanol (0.2% diethylamine)/hexanes was used for gradient elution with 5–50% isopropanol (0.2% diethylamine) for 11 min, a Chiralpak IB column, and with sample (1 μL, 1.25 mg/mL) injection, 220 nm wavelength detection, and a flow rate of 1 mL/min. […] The L-alanine analog co-elutes with enantiomer-1 while the D-alanine analog co-elutes with enantiomer-2. Analysis of the enantiomers and A03 in the Parallel Artificial Membrane Permeability Assay (PAMPA) was performed and is described in Supplementary Methods. […]
PAMPA. An IAM.PC.DD2 Regis Technologies analytical (10 cm x 4.6 mm) column wherein phospholipid is bonded on 10 μm, 300 Å, spherical aminopropyl silica and end capped with C10 and C3 amides was used to determine membrane permeability of A03, E1 and E2. An isocratic method was used with a mobile phase comprising acetonitrile:PBS (pH 5.6) equal to 35:65, an injection volume of 5 µL, and a flow rate of 1 mL/min. The parameters determined are Tr = retention time of compound; KIAM= (Tr-T0)/T0; T0= is the delay time of the column, determined by use of 100 µg/mL citric acid) and was T0= 1.24 min; and (KIAM/MW4)*10-(10). The molecular weight of all three compounds was 255.74 g/mol. […]
Supplementary Fig. S1. […] (a) Transient transfection with either
ApoE3 or E4 decreased SirT1 levels as compared to empty vector (Pc/DMSO), but the decrease was greater with […]

[3] = Pharmacokinetics after subcutaneous (SQ) injection in mice; format: in vivo
E4FAD mice = assay: Novel Object Recognition (NOR) in 56-day study; format: in vivo; details: total time with both objects, vs E4FAD Veh
Experimental: E4FAD mice were 10–12 mo and NTg mice 7–9 mo at the start of the study.
All mice underwent NOR testing the last week of dosing. Mice were acclimated to a 30 × 40 cm arena for 15 minutes 24 hrs before acquisition. Individual mice underwent acquisition by exposure to two identical objects for 10 min. and then were returned to the home cage overnight. For the probe, individual mice were returned to the arena wherein one of the objects had been changed. Mice were allowed to explore the objects for 10 minutes. Both the acquisition and probe were recorded on tripod-mounted video cameras. The number of discreet interactions with each object (nose within 1 cm of the object) and time spent with each object were scored by personnel blind to the treatment and genotype of the mice; scores were spot-checked by a second scorer. The discrimination index (DI) was calculated by subtracting time spent (or number of interactions) with the familiar object (TF) from time spent (or number of interactions) with the novel object (TN), and then dividing that value by the sum of those two values [DI = (TN − TF)/(TN + TF)][73].

SirT1 mRNA = tested on: SirT1 mRNA; parameters: method as in PMID 26791201; details: original studies, A172-E4 cells; cited from earlier work

## CC(N)C(=O)OC(C)(C)Cc1ccc(Cl)cc1 (stereo not shown) [A03, alaproclate]
[1]; read-out: EC50 for enhancement of SirT1, N2a-E4 cells, dose-response curve, n = 3 at each concentration
  EC50: 2.3 µM
[1]; N2a-E4 cells, dose-response curve, n = 3 at each concentration, read-out: EC50 for enhancement of SirT1
  EC50: 2 µM
[1]; N2a-E4 cells, 1, 5 and 10 μM
  Dose-response increase in SirT1 in secondary testing: showed a dose-response
[1]; N2a-E4 cells, 5 and 50 μM, n = 3 wells
  SirT1 increase, racemate vs enantiomers: increase SirT1 in N2a-E4 with high significance
[1]; N2a-E4 cells, 24 hrs, NIH Clinical Collection screen, A03 5 μM as positive control
  SirT1 level in HTS: significantly increased SirT1
[1]; N2a-E4 cells, A03 at 5 or 50 μM vs DMSO
  SirT1 (normalized to protein): dose-response increase
[1]; secondary assay, N2a-E4 cells, 1 μM, n = 6 wells
  SirT1 increase vs DMSO control at 1 μM: modest but significant increases
[1]; secondary assay, N2a-E4 cells, 5 and 10 μM, n = 6 wells
  SirT1 increase vs DMSO control at 5 and 10 μM: increased SirT1
[2]; IAM.PC.DD2 column, acetonitrile:PBS (pH 5.6) 35:65
  retention time (Tr) in PAMPA: 3.31
[2]; KIAM = (Tr-T0)/T0, T0 = 1.24 min
  KIAM: 1.67
[2]; MW 255.74 g/mol
  (KIAM/MW^4) * 10^−(10): 3.90
[3]; 10 mg/Kg SQ vs 10 mg/Kg oral
  factor by which brain levels after SQ exceed those after oral delivery: 4 to 5
[3]; mice, SQ 10 mg/kg, unit as printed in Fig. 4d legend
  AUC plasma: 1520 ng·h/mL
[3]; mouse, brain, sc, mice, SQ 10 mg/kg, n = 1
  Tmax: 2 h
[3]; mouse, brain, sc, mice, SQ 10 mg/kg, n = 1, read-out: Cmax in brain
  Cmax: ~2600 ng/g
[3]; mouse, brain, subcutaneous, mice, SQ 10 mg/Kg, read-out: Cmax in brain as molar concentration
  Cmax: ~10 µM
[3]; mouse, plasma, subcutaneous, mice, SQ 10 mg/kg
  AUC: 1520 ng·h/mL
E4FAD mice
  Exploration time in NOR: similar
SirT1 mRNA
  SirT1 mRNA: increase in SirT1 mRNA
